From US7122523B2, “Methods for inhibiting tumor cell proliferation” (University of Southern California, priority 2001, dated 2006) come the findings set out here.

“Also recorded” adds a separate entry of the source.

The assay can be described thus: Test of effectiveness of AII fragments (test not specified). To be noted: repeated tests.

As to Tyr-Ile-His-Pro-Phe (YIHPF) [AII(4-8)], the “effectiveness as active agent” value is listed as “not to be effective; also recorded: ineffective”.
